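In this assay, cells in 96-well plates receive the compound at five concentrations for 48 hours. Endpoints are linearly interpolated between the surrounding concentrations. At the TGI there is no net growth.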
Assays:
Assay in all cases: growth of human tumour cells (NCI), 48 h
[1] = test system: 786-0 renal
[2] = test system: A498 renal
[3] = test system: A549 NSCLC
[4] = test system: ACHN renal
[5] = test system: BT-549 breast
[6] = test system: CAKI-1 renal
[7] = test system: CCRF-CEM leukemia
[8] = test system: COLO 205 colon
[9] = test system: DU-145 prostate
[10] = test system: EKVX NSCLC
[11] = test system: HCT-116 colon
[12] = test system: HCT-15 colon
[13] = test system: HL-60(TB) leukemia
[14] = test system: HOP-62 NSCLC
[15] = test system: HOP-92 NSCLC
[16] = test system: HS 578T breast
[17] = test system: HT29 colon
[18] = test system: IGROV1 ovarian
[19] = test system: K-562 leukemia
[20] = test system: KM12 colon
[21] = test system: LOX IMVI melanoma
[22] = test system: M14 melanoma
[23] = test system: MALME-3M melanoma
[24] = test system: MCF7 breast
[25] = test system: MDA-MB-231 breast
[26] = test system: MDA-MB-435
[27] = test system: MDA-N
[28] = test system: MOLT-4 leukemia
[29] = test system: NCI-H226 lung
[30] = test system: NCI-H23 lung
[31] = test system: NCI-H460 lung
[32] = test system: NCI-H522 lung
[33] = test system: NCI/ADR-RES ovarian
[34] = test system: OVCAR-3 ovarian
[35] = test system: OVCAR-4 ovarian
[36] = test system: OVCAR-5 ovarian
[37] = test system: OVCAR-8 ovarian
[38] = test system: RXF 393 renal
[39] = test system: SF-268 CNS
[40] = test system: SF-295 CNS
[41] = test system: SF-539 CNS
[42] = test system: SK-MEL-2 melanoma
[43] = test system: SK-MEL-28 melanoma
[44] = test system: SK-MEL-5 melanoma
[45] = test system: SK-OV-3 ovarian
[46] = test system: SN12C renal
[47] = test system: SNB-75 CNS
[48] = test system: SR leukemia
[49] = test system: SW-620 colon
[50] = test system: T-47D breast
[51] = test system: TK-10 renal
[52] = test system: U251 CNS
[53] = test system: UACC-257 melanoma
[54] = test system: UACC-62 melanoma
[55] = test system: UO-31 renal

Compound: OC1CC(O)c2c(Cl)sc(Cl)c21 (stereo not given)
- TGI [1]: > 100 µM
- TGI [2]: > 100 µM
- TGI [3]: 89.2 µM
- TGI [4]: > 100 µM
- TGI [5]: > 100 µM
- TGI [6]: > 100 µM
- TGI [7]: > 100 µM
- TGI [8]: 33.4 µM
- TGI [9]: > 100 µM
- TGI [10]: > 100 µM
- TGI [11]: > 100 µM
- TGI [12]: > 100 µM
- TGI [13]: > 100 µM
- TGI [14]: 98.4 µM
- TGI [15]: 56.2 µM
- TGI [16]: 82.4 µM
- TGI [17]: > 100 µM
- TGI [18]: > 100 µM
- TGI [19]: > 100 µM
- TGI [20]: > 100 µM
- TGI [21]: > 100 µM
- TGI [22]: > 100 µM
- TGI [23]: > 100 µM
- TGI [24]: > 100 µM
- TGI [25]: > 100 µM
- TGI [26]: > 100 µM
- TGI [27]: > 100 µM
- TGI [28]: > 100 µM
- TGI [29]: > 100 µM
- TGI [30]: 67.3 µM
- TGI [31]: 65.2 µM
- TGI [32]: 56.8 µM
- TGI [33]: > 100 µM
- TGI [34]: 70.8 µM
- TGI [35]: > 100 µM
- TGI [36]: > 100 µM
- TGI [37]: > 100 µM
- TGI [38]: 11.5 µM
- TGI [39]: > 100 µM
- TGI [40]: 87.3 µM
- TGI [41]: > 100 µM
- TGI [42]: 49.4 µM
- TGI [43]: > 100 µM
- TGI [44]: > 100 µM
- TGI [45]: 82 µM
- TGI [46]: > 100 µM
- TGI [47]: 49.2 µM
- TGI [48]: > 100 µM
- TGI [49]: > 100 µM
- TGI [50]: > 100 µM
- TGI [51]: 82.3 µM
- TGI [52]: > 100 µM
- TGI [53]: 54.9 µM
- TGI [54]: > 100 µM
- TGI [55]: 77.5 µM

— PubChem BioAssay (NCI)
